Data taken from US7115572B2, “Indolicidin analogs with anti-microbial activity” (Council of Scientific and Industrial Research, priority 2001, dated 2006).
Read-outs that look alike come from different tables or passages of the source. Marks after values point to notes of the source that are not given here. No end group written: not given here.

Key:
Assay type in all cases: cell-based
[1] = system: Escherichia coli (W160.37)
Description: (§1) In still another embodiment of the present invention, the antimicrobial activities of the peptides are determined in liquid medium by a modified method described by Lehrer et al. (10) In still another embodiment of the present invention, all incubations are carried out at 37° C. Microbial growth is determined by measuring the increase in OD600. The lowest concentration of the peptide that result in complete inhibition of growth is recorded as its minimal inhibitory concentration (MIC). In still another embodiment of the present invention, the microorganisms used are Escherichia coli ([…]) and Staphylococcus aureus. A peptide concentration in stock solution is determined by amino acid analysis.

Staphylococcus aureus = system: Staphylococcus aureus
Description: as §1

rat erythrocytes = experiment: Hemolytic activity on freshly isolated rat erythrocytes
Description: In still another embodiment of the present invention, hemolytic activity of the peptides is assessed on freshly isolated rat erythrocytes.
In still another embodiment of the present invention, heparinized rat blood in saline is initially centrifuged at 1000 rpm for 10 min to remove the buffy coat.
In still another embodiment of the present invention, the erythrocyte suspension is further washed thrice with 5 mM Hepes, pH 7.4 containing 150 mM NaCl.
In still another embodiment of the present invention, aliquots of cell suspension (˜10^6 cells) in eppendorf tubes are incubated with the peptide in duplicates at 37° C. for 30 min with gentle mixing.
In still another embodiment of the present invention, the tubes are then centrifuged and the absorbance of the supernatants is measured at 540 nm. The lysis obtained with 1% triton×100 is taken as 100%.

[2] = lowest concentration giving complete inhibition of growth, 37° C., OD600

Molecule | E.CO// (MIC μg/ml) [1, 2] [µg/mL] | S.aureus (MIC μg/ml) (Staphylococcus aureus; [2]) [µg/mL] | % Hemolytic activity at 100 μg/ml (rat erythrocytes; 100 μg/ml peptide, rat erythrocytes, 37° C., 30 min, 1% triton x100 = 100%) | E.CO// (MIC μg/ml) ([1]; W160.37) [µg/mL] | S.aureus (MIC μg/ml) (Staphylococcus aureus) [µg/mL] | % Hemolytic activity at 100 μg/ml (rat erythrocytes; red cells of rat, 100) [%]
CC[C@H](C)[C@H](N)C(=O)N[C@@H](CC(C)C)C(=O)N1CCC[C@H]1C(=O)N[C@@H](Cc1c[nH]c2ccccc12)C(=O)N[C@@H](CCCCN)C(=O)N[C@@H](Cc1c[nH]c2ccccc12)C(=O)N1CCC[C@H]1C(=O)N[C@@H](Cc1c[nH]c2ccccc12)C(=O)N[C@@H](Cc1c[nH]c2ccccc12)C(=O)N1CCC[C@H]1C(=O)N[C@@H](Cc1c[nH]c2ccccc12)C(=O)N[C@@H](CCCNC(=N)N)C(=O)N[C@@H](CCCNC(=N)N)C(N)=O [IL, ILPWKWPWWPWRR-amide, reference compound] | 5 | 2 | 100^a % | – | – | –
ILPLKLPLLPWRR-NH2 [IL11, ILPLKLPLLPWRR-amide] | – | – | – | 20 | 5 | 0
ILPLKLPWLPLRR-NH2 [IL8, ILPLKLPWLPLRR-amide] | – | – | – | 20 | 10 | 0
ILPWKLPLLPLRR-NH2 [IL4, ILPWKLPLLPLRR-amide] | – | – | – | 15 | 10 | 0
